# ChEMBL document CHEMBL1141354, “Isolation and structures of erylosides from the Carribean sponge Erylus goffrilleri” (J Nat Prod, 2007)
# Test system: Ehrlich
# Experiment: Cytotoxicity against albino mouse Ehrlich carcinoma cells after 1 hr
# Assay type: functional, cell-based
row,Structure (SMILES),IC50
1,CC(=O)N[C@H]1[C@H](O[C@H]2[C@H](O[C@H]3CC[C@]4(C)C5=C(CC[C@H]4C3(C)C)[C@]3(C(=O)O)CCC([C@H](C)CCC(C)(OC(C)=O)C(C)C)[C@@]3(C)CC5)O[C@H](CO)[C@H](O)[C@@H]2O)O[C@H](CO)[C@@H](O)[C@@H]1O (stereo partly specified) [ERYLOSIDE F6],20 µM
2,C[C@H](CCC(C)(O)C(C)(C)C)C1CC[C@@]2(C(=O)O)C3=C(CC[C@]12C)[C@@]1(C)CC[C@H](O[C@@H]2O[C@H](CO)[C@H](O)[C@H](O[C@@H]4O[C@H](CO)[C@@H](O)[C@H](O)[C@H]4O)[C@H]2O)C(C)(C)[C@@H]1CC3 (stereo partly specified) [ERYLOSIDE F7],20 µM
3,C[C@H](CCC(C)(O)C(C)(C)C)C1CC[C@@]2(C(=O)O)C3=C(CC[C@]12C)[C@@]1(C)CC[C@H](O[C@@H]2O[C@H](CO)[C@H](O)[C@H](O)[C@H]2O)C(C)(C)[C@@H]1CC3 (stereo partly specified) [ERYLOSIDE R],20 µM
4,CC(=O)OC(C)(CC[C@@H](C)C1CC[C@@]2(C(=O)O)C3=C(CC[C@]12C)[C@@]1(C)CC[C@H](O[C@@H]2O[C@H](CO)[C@H](O)[C@H](O)[C@H]2O)C(C)(C)[C@@H]1CC3)C(C)C (stereo partly specified) [ERYLOSIDE S],20 µM
5,C[C@H](CCC(C)(O)C(C)(C)C)C1CC[C@]23C(=O)O[C@]4(CC[C@]12C)C3=CC[C@H]1C(C)(C)[C@@H](O[C@@H]2O[C@H](CO)[C@H](O)[C@H](O)[C@H]2O)CC[C@@]14C (stereo partly specified) [ERYLOSIDE T],20 µM
6,C[C@H](CCC(C)(O)C(C)(C)C)C1CC[C@@]2(C(=O)O)C3=C(CC[C@]12C)[C@@]1(C)CC[C@H](O[C@@H]2OC[C@H](O)[C@H](O[C@@H]4OC[C@@H](O)[C@H](O)[C@H]4O)[C@H]2O[C@@H]2O[C@H](CO)[C@H](O)[C@H](O)[C@H]2O)C(C)(C)[C@@H]1CC3 (stereo partly specified) [ERYLOSIDE V],20 µM
